How the values were obtained:
MERTK = molecular target: T1, MERTK (Homo sapiens, UniProt Q12866); assay: TR-FRET kinase activity assay, MERTK; assay type: biochemical; conditions: for IC50: TR-FRET activity assay, ATP at Km, 60 minutes, read-out: Mer IC50; for FLT3/Mer ratio (FLT3 IC50/Mer IC50): ratio of Mer to FLT3: FLT3 IC50/Mer IC50
T1 sequence (Q12866 21-999): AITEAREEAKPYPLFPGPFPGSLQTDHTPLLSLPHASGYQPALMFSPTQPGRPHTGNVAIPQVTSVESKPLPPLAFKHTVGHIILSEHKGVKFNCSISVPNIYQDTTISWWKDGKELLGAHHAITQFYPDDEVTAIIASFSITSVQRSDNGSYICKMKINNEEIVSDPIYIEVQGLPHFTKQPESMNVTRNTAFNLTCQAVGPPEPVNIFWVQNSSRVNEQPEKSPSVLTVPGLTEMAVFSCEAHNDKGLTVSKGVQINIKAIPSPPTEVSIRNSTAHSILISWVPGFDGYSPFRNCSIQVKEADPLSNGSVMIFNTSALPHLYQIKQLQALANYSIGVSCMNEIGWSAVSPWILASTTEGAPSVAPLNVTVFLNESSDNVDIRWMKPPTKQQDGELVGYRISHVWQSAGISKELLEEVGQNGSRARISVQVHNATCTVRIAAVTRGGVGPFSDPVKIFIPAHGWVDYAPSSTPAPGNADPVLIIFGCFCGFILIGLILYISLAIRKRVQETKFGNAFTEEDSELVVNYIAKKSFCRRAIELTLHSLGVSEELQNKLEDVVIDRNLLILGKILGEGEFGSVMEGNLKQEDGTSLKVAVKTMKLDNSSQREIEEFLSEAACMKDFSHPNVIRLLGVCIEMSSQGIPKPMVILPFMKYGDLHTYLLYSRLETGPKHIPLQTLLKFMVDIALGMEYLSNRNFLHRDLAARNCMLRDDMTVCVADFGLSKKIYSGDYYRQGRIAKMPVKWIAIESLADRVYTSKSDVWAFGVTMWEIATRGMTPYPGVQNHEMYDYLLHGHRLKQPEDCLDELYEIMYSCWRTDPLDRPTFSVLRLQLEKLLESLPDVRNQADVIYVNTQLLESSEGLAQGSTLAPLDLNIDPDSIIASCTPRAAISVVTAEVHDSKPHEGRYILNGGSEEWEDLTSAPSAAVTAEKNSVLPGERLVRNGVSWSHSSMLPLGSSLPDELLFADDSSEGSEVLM
How it was run: (§1)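 Enzyme + labelled peptide + cpd premixed; ATP at per-enzyme Km starts rxn. 60 min RT, HEPES pH 7.5/MgCl2/EGTA/Brij 35/DTT buffer. Stop 12.5 mM EDTA, Eu phospho-Ab 30 min dark, TR-FRET read → IC50.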

AXL = molecular target: T2, AXL (Homo sapiens, UniProt P30530); assay: TR-FRET kinase activity assay, AXL; assay type: biochemical; conditions: ATP at Km, 60 minutes
T2 sequence (P30530 26-894): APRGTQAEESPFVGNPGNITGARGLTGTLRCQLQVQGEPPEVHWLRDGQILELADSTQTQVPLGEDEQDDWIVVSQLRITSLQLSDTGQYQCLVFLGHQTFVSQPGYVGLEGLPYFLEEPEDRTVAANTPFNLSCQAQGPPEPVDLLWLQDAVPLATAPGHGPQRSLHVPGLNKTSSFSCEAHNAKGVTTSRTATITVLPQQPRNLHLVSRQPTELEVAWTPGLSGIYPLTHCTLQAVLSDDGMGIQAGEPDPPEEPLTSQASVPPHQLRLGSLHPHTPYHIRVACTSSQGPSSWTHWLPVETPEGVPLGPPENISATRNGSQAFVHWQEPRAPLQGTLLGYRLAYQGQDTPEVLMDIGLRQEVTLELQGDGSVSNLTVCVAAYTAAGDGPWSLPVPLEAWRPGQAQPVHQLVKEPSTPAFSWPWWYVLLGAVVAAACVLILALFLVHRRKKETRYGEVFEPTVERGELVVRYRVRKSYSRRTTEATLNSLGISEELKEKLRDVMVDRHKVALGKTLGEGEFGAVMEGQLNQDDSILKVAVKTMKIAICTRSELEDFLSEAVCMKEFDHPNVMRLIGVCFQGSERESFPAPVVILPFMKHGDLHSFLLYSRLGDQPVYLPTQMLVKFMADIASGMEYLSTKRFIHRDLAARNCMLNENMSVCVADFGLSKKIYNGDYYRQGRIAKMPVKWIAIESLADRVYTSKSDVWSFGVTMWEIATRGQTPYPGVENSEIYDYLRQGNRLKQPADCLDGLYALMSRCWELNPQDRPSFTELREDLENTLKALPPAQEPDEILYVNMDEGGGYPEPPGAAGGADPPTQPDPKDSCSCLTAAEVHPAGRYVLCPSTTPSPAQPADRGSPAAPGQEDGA
How it was run: as §1

SMILES	IC50 (MERTK) [nM]	FLT3/Mer ratio (FLT3 IC50/Mer IC50) (MERTK)	IC50 (AXL) [nM]
CNc1c(N[C@H]2CC[C@H](c3cc(-c4ccc(CN5CCOCC5)cc4)c4cnc(N[C@@H](C)COC)nn43)CC2)c(=O)c1=O [Compound 316, 3-(((trans)-4-(2-(((S)-1-methoxypropan-2-yl)amino)-5-(4-(morpholinomethyl)phenyl)pyrrolo[2,1-f][1,2,4]triazin-7-yl)cyclohexyl)amino)-4-(methylamino)cyclobut-3-ene-1,2-dione]	≤ 100	++ (“++” represents a ratio of between 10 and 100)	≤ 100
COC[C@H](C)Nc1ncc2c(-c3cnn(C(C)(C)C(=O)N4C[C@H](C)O[C@@H](C)C4)c3)cc([C@H]3CC[C@H](O)CC3)n2n1 [Compound 328]	≤ 100	+++ (“+++” represents a ratio of >100)	≤ 100
COC[C@H](C)Nc1ncc2c(-c3cnn(Cc4cncc(C)n4)c3)cc([C@H]3CC[C@H](O)CC3)n2n1 [Compound 329]	≤ 100	+++ (“+++” represents a ratio of >100)	≤ 100
COC[C@H](C)Nc1ncc2c(-c3cnn(C4CC(C(=O)OC)C4)c3)cc([C@H]3CC[C@H](O)CC3)n2n1 (stereo partly drawn) [Compound 330]	≤ 100	+++ (“+++” represents a ratio of >100)	≤ 100
COC[C@H](C)Nc1ncc2c(-c3cnn(C(C)(C)C(=O)N4CCS(=O)(=O)CC4)c3)cc([C@H]3CC[C@H](O)CC3)n2n1 [Compound 331, 1-(1,1-dioxidothiomorpholino)-2-(4-(7-((trans)-4-hydroxycyclohexyl)-2-(((S)-1-methoxypropan-2-yl)amino)pyrrolo[2,1-f][1,2,4]triazin-5-yl)-1H-pyrazol-1-yl)-2-methylpropan-1-one]	≤ 100	+++ (“+++” represents a ratio of >100)	≤ 100
COC[C@H](C)Nc1ncc2c(-c3cnn(Cc4cn[nH]c4)c3)cc([C@H]3CC[C@H](O)CC3)n2n1 [Compound 332]	≤ 100	+++ (“+++” represents a ratio of >100)	≤ 100
COC[C@H](C)Nc1ncc2c(-c3cnn(Cc4cc(C)nn4C)c3)cc([C@H]3CC[C@H](O)CC3)n2n1 [Compound 333]	≤ 100	+++ (“+++” represents a ratio of >100)	≤ 100
CNC(=O)c1ncc(-c2cc([C@H]3CC[C@H](O)CC3)n3nc(N[C@@H](C)COC)ncc23)cn1 [Compound 334]	≤ 100	+++ (“+++” represents a ratio of >100)	100 to 1000
CNC(=O)c1cc(-c2cc([C@H]3CC[C@H](O)CC3)n3nc(N[C@@H](C)COC)ncc23)cc(C)n1 [Compound 335]	≤ 100	+++ (“+++” represents a ratio of >100)	100 to 1000
CNS(=O)(=O)c1ccc(-c2cc([C@H]3CC[C@H](O)CC3)n3nc(N[C@@H](C)COC)ncc23)cn1 [Compound 336]	≤ 100	+++ (“+++” represents a ratio of >100)	≤ 100
COC[C@H](C)Nc1ncc2c(-c3ccnc(NC(C)C)c3)cc([C@H]3CC[C@H](O)CC3)n2n1 [Compound 337]	≤ 100	+++ (“+++” represents a ratio of >100)	≤ 100
COC[C@H](C)Nc1ncc2c(-c3ccnc(N4CCN(S(C)(=O)=O)CC4)c3)cc([C@H]3CC[C@H](O)CC3)n2n1 [Compound 338]	≤ 100	+++ (“+++” represents a ratio of >100)	≤ 100
COC[C@H](C)Nc1ncc2c(-c3ccnc(N4CCCC4)c3)cc([C@H]3CC[C@H](O)CC3)n2n1 [Compound 339]	≤ 100	+++ (“+++” represents a ratio of >100)	≤ 100
COC[C@H](C)Nc1ncc2c(-c3ccnc(N4CCNC(=O)C4)c3)cc([C@H]3CC[C@H](O)CC3)n2n1 [Compound 340]	≤ 100	+++ (“+++” represents a ratio of >100)	≤ 100
COC[C@H](C)Nc1ncc2c(-c3ccnc(OC4CCCN(C)C4)c3)cc([C@H]3CC[C@H](O)CC3)n2n1 (stereo partly drawn) [Compound 341]	≤ 100	+++ (“+++” represents a ratio of >100)	≤ 100

The next lines start with the values.

IC50 (MERTK) [nM]	FLT3/Mer ratio (FLT3 IC50/Mer IC50) (MERTK)	IC50 (AXL) [nM]	SMILES
≤ 100	+++ (“+++” represents a ratio of >100)	≤ 100	CNC(=O)c1ccc(-c2cc([C@H]3CC[C@H](O)CC3)n3nc(N[C@@H](C)COC)ncc23)cn1 [Compound 317]
≤ 100	+++ (“+++” represents a ratio of >100)	≤ 100	COC[C@H](C)Nc1ncc2c(-c3cnn(C(C)(C)C(=O)N4CCC5(COC5)C4)c3)cc([C@H]3CC[C@H](O)CC3)n2n1 [Compound 318]
≤ 100	+++ (“+++” represents a ratio of >100)	≤ 100	COC[C@H](C)Nc1ncc2c(-c3cnn(C(C)(C)C(=O)C4C[C@H]5COC[C@H]5C4)c3)cc([C@H]3CC[C@H](O)CC3)n2n1 (stereo partly drawn) [Compound 319]
≤ 100	+++ (“+++” represents a ratio of >100)	≤ 100	COC[C@H](C)Nc1ncc2c(-c3cnn(C(C)(C)C(=O)N4C[C@@H](C)O[C@@H](C)C4)c3)cc([C@H]3CC[C@H](O)CC3)n2n1 [Compound 320]
≤ 100	+++ (“+++” represents a ratio of >100)	≤ 100	Cc1ccc(-c2cc([C@H]3CC[C@H](O)CC3)n3nc(N[C@@H](C)COC(F)F)ncc23)cn1 [Compound 321]
≤ 100	+++ (“+++” represents a ratio of >100)	≤ 100	COCC(C)Nc1ncc2c(-c3cnn(Cc4ccc(=O)n(C)c4)c3)cc(C3CCC(O)CC3)n2n1 (stereo not drawn) [Compound 322]
≤ 100	+++ (“+++” represents a ratio of >100)	≤ 100	COC[C@H](C)Nc1ncc2c(-c3cnn(C4CCS(=O)(=O)CC4)c3)cc([C@H]3CC[C@H](O)CC3)n2n1 [Compound 323]
≤ 100	+++ (“+++” represents a ratio of >100)	≤ 100	COC[C@H](C)Nc1ncc2c(-c3cnn(C[C@H]4CCC(=O)N4)c3)cc([C@H]3CC[C@H](O)CC3)n2n1 [Compound 324]
≤ 100	+++ (“+++” represents a ratio of >100)	≤ 100	COC[C@H](C)Nc1ncc2c(-c3cnn(C(C)(C)C(=O)N4CC5(COC5)C4)c3)cc([C@H]3CC[C@H](O)CC3)n2n1 [Compound 326]
≤ 100	+++ (“+++” represents a ratio of >100)	≤ 100	COC[C@H](C)Nc1ncc2c(-c3cnn(C(C)(C)C(=O)N4C[C@H]5CC[C@@H](C4)O5)c3)cc([C@H]3CC[C@H](O)CC3)n2n1 [Compound 327]

From patent US11040981B2, “Pyrrolotriazine compounds and methods of inhibiting TAM kinases” (Syros Pharmaceuticals, Inc., priority 2017, dated 2021)
